Source: PubChem BioAssay AID1963972 (Molecular Pharmacology Branch, DTP, NCI, 2024)

System: 945468-187-T-J2-PDC spheroids viability
Experiment: Anticancer human tumor 945468-187-T-J2-PDC patient-derived rectal carcinoma cell line growth inhibition [PI3K]
Conditions: spheroids with HUVEC and MSC; for IC50: curve of first compound; for viability, T/C: stronger effect = lower value
Procedure, shortened: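 Complex 3D spheroids (cancer cells + endothelial HUVEC + mesenchymal stem cells); drug pairs of targeted agent x inavolisib/alpelisib/duvelisib/copanlisib; half-log series from ~Cmax, max 10 microM if Cmax unknown; endpoint viability.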

[1] = second compound 0.0316 µM, first compound 0.0316 µM
[2] = second compound 0.0316 µM, first compound 0.1 µM
[3] = second compound 0.0316 µM, first compound 0.316 µM
[4] = second compound 0.0316 µM, first compound 1 µM
[5] = second compound 0.0316 µM, first compound 3.16 µM
[6] = second compound 0.0316 µM, first compound 10 µM
[7] = second compound 0.1 µM, first compound 0.0316 µM
[8] = second compound 0.1 µM, first compound 0.1 µM
[9] = second compound 0.1 µM, first compound 0.316 µM
[10] = second compound 0.1 µM, first compound 1 µM
[11] = second compound 0.1 µM, first compound 3.16 µM
[12] = second compound 0.1 µM, first compound 10 µM
[13] = second compound 0.316 µM, first compound 0.0316 µM
[14] = second compound 0.316 µM, first compound 0.1 µM
[15] = second compound 0.316 µM, first compound 0.316 µM
[16] = second compound 0.316 µM, first compound 1 µM
[17] = second compound 0.316 µM, first compound 3.16 µM
[18] = second compound 0.316 µM, first compound 10 µM
[19] = second compound 1 µM, first compound 0.0316 µM
[20] = second compound 1 µM, first compound 0.1 µM
[21] = second compound 1 µM, first compound 0.316 µM
[22] = second compound 1 µM, first compound 1 µM
[23] = second compound 1 µM, first compound 3.16 µM
[24] = second compound 1 µM, first compound 10 µM
[25] = second compound 3.16 µM, first compound 0.0316 µM
[26] = second compound 3.16 µM, first compound 0.1 µM
[27] = second compound 3.16 µM, first compound 0.316 µM
[28] = second compound 3.16 µM, first compound 1 µM
[29] = second compound 3.16 µM, first compound 3.16 µM
[30] = second compound 3.16 µM, first compound 10 µM
[31] = second compound 10 µM, first compound 0.0316 µM
[32] = second compound 10 µM, first compound 0.1 µM
[33] = second compound 10 µM, first compound 0.316 µM
[34] = second compound 10 µM, first compound 1 µM
[35] = second compound 10 µM, first compound 3.16 µM
[36] = second compound 10 µM, first compound 10 µM
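Further: spheroids exposed to compounds for seven days before reading.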

Molecule `C#Cc1c(F)ccc2cc(O)cc(-c3ncc4c(N5CC6CCC(C5)N6)nc(OCC56CCCN5CC(F)C6)nc4c3F)c12` (centres undefined) + CC(Nc1ncnc2nc[nH]c12)c1cc2cccc(Cl)c2c(=O)n1-c1ccccc1 has an IC50 (second compound 0.0316 µM) of over 10 µM, an IC50 (second compound 0.1 µM) of over 10 µM and an IC50 (second compound 0.316 µM) of over 10 µM. The IC50 (second compound 1 µM) was over 10 µM, the IC50 (second compound 3.16 µM) was over 10 µM and the IC50 (second compound 10 µM) was over 10 µM. For the same molecule, the viability, T/C [1] was 101%, the viability, T/C [2] was 99.8% and the viability, T/C [3] was 95.8%. The viability, T/C [4] was 86.4%, the viability, T/C [5] was 102% and the viability, T/C [6] was 117%. The viability, T/C [7] was 111%, the viability, T/C [8] was 110% and the viability, T/C [9] was 103%. It also gave a viability, T/C [10] of 134%, a viability, T/C [11] of 107% and a viability, T/C [12] of 106%. For the same molecule, the viability, T/C [13] was 100%, the viability, T/C [14] was 116% and the viability, T/C [15] was 87.1%. For the same molecule, the viability, T/C [16] was 95.3%, the viability, T/C [17] was 116% and the viability, T/C [18] was 111%. The viability, T/C [19] was 96.3%, the viability, T/C [20] was 104% and the viability, T/C [21] was 113%. The viability, T/C [22] was 106%, the viability, T/C [23] was 96.2% and the viability, T/C [24] was 114%. For the same molecule, the viability, T/C [25] was 91%, the viability, T/C [26] was 98.6% and the viability, T/C [27] was 107%. The viability, T/C [28] was 125%, the viability, T/C [29] was 114% and the viability, T/C [30] was 105%. For the same molecule, the viability, T/C [31] was 114%, the viability, T/C [32] was 140% and the viability, T/C [33] was 149%. The viability, T/C [34] was 99.7%, the viability, T/C [35] was 116% and the viability, T/C [36] was 112%.

`C=CC(=O)N1CCN(c2nc(=O)n(-c3c(C)ccnc3C(C)C)c3nc(-c4c(O)cccc4F)c(F)cc23)C(C)C1` (centres undefined) + CC(Nc1ncnc2nc[nH]c12)c1cc2cccc(Cl)c2c(=O)n1-c1ccccc1 showed an IC50 (second compound 0.0316 µM) of over 10 µM, an IC50 (second compound 0.1 µM) of over 10 µM and an IC50 (second compound 0.316 µM) of over 10 µM. The IC50 (second compound 1 µM) was over 10 µM, the IC50 (second compound 3.16 µM) was over 10 µM and the IC50 (second compound 10 µM) was over 10 µM. It also gave a viability, T/C [1] of 103%, a viability, T/C [2] of 124% and a viability, T/C [3] of 100%. The viability, T/C [4] was 114%, the viability, T/C [5] was 111% and the viability, T/C [6] was 95.8%. For the same molecule, the viability, T/C [7] was 97.5%, the viability, T/C [8] was 82.7% and the viability, T/C [9] was 91.5%. The viability, T/C [10] was 85.2%, the viability, T/C [11] was 93% and the viability, T/C [12] was 136%. The viability, T/C [13] was 109%, the viability, T/C [14] was 114% and the viability, T/C [15] was 96.3%. For the same molecule, the viability, T/C [16] was 105%, the viability, T/C [17] was 106% and the viability, T/C [18] was 84.7%. It also gave a viability, T/C [19] of 87.6%, a viability, T/C [20] of 98.8% and a viability, T/C [21] of 113%. The viability, T/C [22] was 104%, the viability, T/C [23] was 107% and the viability, T/C [24] was 89.3%. It also gave a viability, T/C [25] of 94.6%, a viability, T/C [26] of 106% and a viability, T/C [27] of 104%. It also gave a viability, T/C [28] of 97.8%, a viability, T/C [29] of 99.6% and a viability, T/C [30] of 104%. The viability, T/C [31] was 124%, the viability, T/C [32] was 122% and the viability, T/C [33] was 116%. It also gave a viability, T/C [34] of 123%, a viability, T/C [35] of 92.4% and a viability, T/C [36] of 90.4%.
